Literature values, collected in US20090162416A1, “Polymer implants for timed release of drugs with particular emphasis on ovulation or spermiation of fish” (priority 2007, published 2009).
Non-standard residues stand in square brackets, D forms with d. pGlu = O=C1CC[C@@H](C(=O)O)N1

Tested on: seasonable ripe gravid female catfish
Conditions: 0.45 mg/lb of body weight

## -Glp-His-Trp-Ser-Tyr-Gly-Leu-Arg-Pro-ethylamide- ([pGlu]HWSYGLRP-NHEt) [LHRH, nine amino acid synthetic polypeptide used to promote ovulation in catfish]
  time to ovulation after single injection: ≤ 12 h
